Molecules are shown by their SMILES. pIC50: −log10 of the molar value.

As a reminder, the pIC50 is the negative decadic logarithm of the IC50, by convention in mol/L.

Sequence of human NaV 1.8 (Q9Y5Y9 whole entry, looked up, the tested form may be a part): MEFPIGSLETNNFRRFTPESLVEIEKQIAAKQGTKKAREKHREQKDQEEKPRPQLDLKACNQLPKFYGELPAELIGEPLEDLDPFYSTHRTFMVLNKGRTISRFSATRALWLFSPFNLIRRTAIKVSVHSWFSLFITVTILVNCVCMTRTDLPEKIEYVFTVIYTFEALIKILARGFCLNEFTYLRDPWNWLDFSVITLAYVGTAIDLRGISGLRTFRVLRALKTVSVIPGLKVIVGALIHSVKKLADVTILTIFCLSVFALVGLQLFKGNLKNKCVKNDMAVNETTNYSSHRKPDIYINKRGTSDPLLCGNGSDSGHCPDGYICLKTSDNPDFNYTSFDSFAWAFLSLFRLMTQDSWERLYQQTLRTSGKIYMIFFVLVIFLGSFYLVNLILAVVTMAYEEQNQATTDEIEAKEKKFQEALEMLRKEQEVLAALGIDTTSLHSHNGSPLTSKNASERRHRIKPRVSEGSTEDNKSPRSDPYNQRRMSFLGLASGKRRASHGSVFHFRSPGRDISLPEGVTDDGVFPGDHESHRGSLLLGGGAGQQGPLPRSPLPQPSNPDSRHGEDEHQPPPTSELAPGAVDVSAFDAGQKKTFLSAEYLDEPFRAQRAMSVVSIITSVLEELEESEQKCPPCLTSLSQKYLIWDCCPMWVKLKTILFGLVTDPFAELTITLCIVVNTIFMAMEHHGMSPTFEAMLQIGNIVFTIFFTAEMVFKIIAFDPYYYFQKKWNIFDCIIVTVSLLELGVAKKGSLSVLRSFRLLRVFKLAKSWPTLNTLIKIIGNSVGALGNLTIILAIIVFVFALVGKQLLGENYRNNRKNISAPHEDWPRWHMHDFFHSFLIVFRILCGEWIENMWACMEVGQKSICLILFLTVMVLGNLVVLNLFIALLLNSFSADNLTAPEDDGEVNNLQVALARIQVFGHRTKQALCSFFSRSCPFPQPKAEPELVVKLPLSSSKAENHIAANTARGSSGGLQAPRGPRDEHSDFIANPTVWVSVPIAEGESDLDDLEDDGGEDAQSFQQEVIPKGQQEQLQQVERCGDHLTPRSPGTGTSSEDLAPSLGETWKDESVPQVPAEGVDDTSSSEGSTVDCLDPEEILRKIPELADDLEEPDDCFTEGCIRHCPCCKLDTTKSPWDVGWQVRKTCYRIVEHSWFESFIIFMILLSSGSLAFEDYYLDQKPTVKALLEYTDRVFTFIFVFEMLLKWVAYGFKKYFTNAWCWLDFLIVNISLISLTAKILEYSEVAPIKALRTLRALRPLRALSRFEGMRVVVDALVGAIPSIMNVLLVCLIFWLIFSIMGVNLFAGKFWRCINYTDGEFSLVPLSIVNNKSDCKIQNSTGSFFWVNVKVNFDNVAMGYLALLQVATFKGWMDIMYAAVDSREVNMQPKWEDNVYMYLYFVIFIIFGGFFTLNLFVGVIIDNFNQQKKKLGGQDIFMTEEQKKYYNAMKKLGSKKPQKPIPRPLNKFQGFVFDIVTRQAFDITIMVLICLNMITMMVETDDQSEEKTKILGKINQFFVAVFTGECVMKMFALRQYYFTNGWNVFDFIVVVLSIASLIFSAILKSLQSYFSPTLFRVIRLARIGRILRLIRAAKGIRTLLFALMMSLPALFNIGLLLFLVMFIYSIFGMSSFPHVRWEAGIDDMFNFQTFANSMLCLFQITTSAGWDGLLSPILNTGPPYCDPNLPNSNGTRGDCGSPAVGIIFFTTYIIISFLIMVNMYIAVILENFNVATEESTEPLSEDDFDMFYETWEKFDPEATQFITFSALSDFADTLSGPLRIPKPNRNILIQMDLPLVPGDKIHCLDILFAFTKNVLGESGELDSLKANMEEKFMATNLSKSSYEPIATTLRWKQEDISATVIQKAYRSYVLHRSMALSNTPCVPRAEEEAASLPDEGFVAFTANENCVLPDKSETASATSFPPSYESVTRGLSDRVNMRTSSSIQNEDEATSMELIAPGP

This assay concerns the target human NaV 1.8 (Homo sapiens, UniProt Q9Y5Y9). Description: E-VIPR assay for detecting and measuring NaV inhibition properties. To be noted: E-VIPR assay conducted in the presence of human serum; HEK cells expressing truncated human NaV 1.8; read-out: IC50. It is filed as cell-based. In outline:
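HEK cells with truncated human NaV1.8 plus KIR2.1 BacMam, hexyl dye loaded 20 min, compound 30 min at room temperature, 11-point 3-fold series […], 0.625% DMSO, with or without human serum. E-VIPR biphasic stimulation at 10 Hz for 10 s; membrane-potential response read as normalized coumarin/oxonol ratio.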
On to `COc1cc(OC(F)(F)F)ccc1Oc1ccc(C2CC2)c(C)c1C(=O)Nc1ccnc(C(N)=O)c1` [Compound 181, 4-[[3-cyclopropyl-6-[2-methoxy-4-(trifluoromethoxy)phenoxy]-2-methyl-benzoyl]amino]pyridine-2-carboxamide], for which the pIC50 is 7.92.

On to `COc1cc(OC(F)(F)F)ccc1Oc1ccc(C2CC2)c(C)c1C(=O)Nc1ccc(C(N)=O)nc1` [Compound 182], for which the pIC50 was 6.54.

For the compound `CCc1c(C(F)(F)F)ccc(Oc2ccc(OC(F)(F)F)cc2OC)c1C(=O)Nc1ccnc(C(N)=O)c1` [Compound 183, 4-[[2-ethyl-6-[2-methoxy-4-(trifluoromethoxy)phenoxy]-3-(trifluoromethyl)benzoyl]amino]pyridine-2-carboxamide], the pIC50 is 7.85.

Consider `CCc1c(C(F)(F)F)ccc(Oc2ccc(OC(F)(F)F)cc2OC)c1C(=O)Nc1ccc(C(N)=O)nc1` [Compound 184], for which the pIC50 is 6.85.

Turning to `COc1cc(OC(F)(F)F)ccc1Oc1ccc(CC(C)C)c(C)c1C(=O)Nc1ccnc(C(N)=O)c1` [Compound 185, 4-[[3-isobutyl-6-[2-methoxy-4-(trifluoromethoxy)phenoxy]-2-methyl-benzoyl]amino]pyridine-2-carboxamide], the pIC50 was 7.96.

Turning to `COc1cc(OC(F)(F)F)ccc1Oc1cc(C(F)(F)F)cc(C)c1C(=O)Nc1cc(C(N)=O)ncc1C` [Compound 186, 4-[[2-[2-methoxy-4-(trifluoromethoxy)phenoxy]-6-methyl-4-(trifluoromethyl)benzoyl]amino]-5-methyl-pyridine-2-carboxamide], the pIC50 is 6.96.

Take `COc1cc(OC(F)(F)F)ccc1Oc1cc(C(F)(F)F)cc(C)c1C(=O)Nc1ccc(C(N)=O)nc1` [Compound 187, 5-[[2-[2-methoxy-4-(trifluoromethoxy)phenoxy]-6-methyl-4-(trifluoromethyl)benzoyl]amino]pyridine-2-carboxamide]: the negative logarithm of the IC50 (pIC50) was 6.31.

`COc1cc(OC(F)(F)F)ccc1Oc1cc(C(F)(F)F)cc(C)c1C(=O)Nc1ccnc(C(N)=O)c1` [Compound 188, 4-[[2-[2-methoxy-4-(trifluoromethoxy)phenoxy]-6-methyl-4-(trifluoromethyl)benzoyl]amino]pyridine-2-carboxamide]: the pIC50 is 7.62.

For `COc1c(Oc2cc(C(F)(F)F)cc(C)c2C(=O)Nc2ccnc(C(N)=O)c2)ccc(F)c1F` [Compound 189, 4-[[2-(3,4-difluoro-2-methoxy-phenoxy)-6-methyl-4-(trifluoromethyl)benzoyl]amino]pyridine-2-carboxamide], the pIC50 is 6.77.

Turning to `Cc1c(C(F)(F)F)ccc(Oc2ccc(F)cc2Cl)c1C(=O)Nc1ccc(C(N)=O)nc1` [Compound 190, 5-[[6-(2-chloro-4-fluoro-phenoxy)-2-methyl-3-(trifluoromethyl)benzoyl]amino]pyridine-2-carboxamide], the pIC50 was 5.82.

For `COc1cc(OC(F)(F)F)ccc1Oc1ccc(C(F)(F)F)c(Cl)c1C(=O)Nc1ccnc(C(N)=O)c1` [Compound 191, 4-[[2-chloro-6-[2-methoxy-4-(trifluoromethoxy)phenoxy]-3-(trifluoromethyl)benzoyl]amino]pyridine-2-carboxamide], the pIC50 is 8.70.

Turning to `NC(=O)c1cc(NC(=O)c2c(Oc3ccc(OC(F)(F)F)cc3Cl)ccc(C(F)(F)F)c2Cl)ccn1` [Compound 192], the pIC50 is 8.40.

Turning to `COc1c(Oc2ccc(C(F)(F)F)c(Cl)c2C(=O)Nc2ccnc(C(N)=O)c2)ccc(F)c1F` [Compound 193], the pIC50 was 8.22.

In the case of `COc1cc(OC(F)(F)F)ccc1Oc1ccc(C(F)(F)F)c(Br)c1C(=O)Nc1ccnc(C(N)=O)c1` [Compound 194, 4-[[2-bromo-6-[2-methoxy-4-(trifluoromethoxy)phenoxy]-3-(trifluoromethyl)benzoyl]amino]pyridine-2-carboxamide], the negative logarithm of the IC50 (pIC50) is 8.70.

Regarding `COc1c(Oc2ccc(C(F)(F)F)c(Br)c2C(=O)Nc2ccnc(C(N)=O)c2)ccc(OC(F)(F)F)c1F` [Compound 195], the pIC50 was 8.30.

Regarding `COc1c(Oc2ccc(C3CC3)c(C)c2C(=O)Nc2ccnc(C(N)=O)c2)ccc(OC(F)(F)F)c1F` [Compound 196, 4-[[3-cyclopropyl-6-[3-fluoro-2-methoxy-4-(trifluoromethoxy)phenoxy]-2-methyl-benzoyl]amino]pyridine-2-carboxamide], the pIC50 was 8.05.

Turning to `COc1c(Oc2ccc(C3CC3)c(C)c2C(=O)Nc2ccc(C(N)=O)nc2)ccc(OC(F)(F)F)c1F` [Compound 197, 5-[[3-cyclopropyl-6-[3-fluoro-2-methoxy-4-(trifluoromethoxy)phenoxy]-2-methyl-benzoyl]amino]pyridine-2-carboxamide], the pIC50 was 6.92.

`COc1cc(OC(F)(F)F)ccc1Oc1ccc(C2CC2)c(C)c1C(=O)Nc1cc(C(N)=O)ncc1C` [Compound 198, 4-[[3-cyclopropyl-6-[2-methoxy-4-(trifluoromethoxy)phenoxy]-2-methyl-benzoyl]amino]-5-methyl-pyridine-2-carboxamide]: the pIC50 is 7.82.

As to `Cc1c(C2CC2)ccc(Oc2ccc(OC(F)(F)F)cc2Cl)c1C(=O)Nc1ccnc(C(N)=O)c1` [Compound 199, 4-[[6-[2-chloro-4-(trifluoromethoxy)phenoxy]-3-cyclopropyl-2-methyl-benzoyl]amino]pyridine-2-carboxamide], the pIC50 was 7.68.

As to `COc1cc(OC(F)(F)F)ccc1Oc1cc(C(F)F)cc(C)c1C(=O)Nc1ccnc(C(N)=O)c1` [Compound 200, 4-[[4-(difluoromethyl)-2-[2-methoxy-4-(trifluoromethoxy)phenoxy]-6-methyl-benzoyl]amino]pyridine-2-carboxamide], the pIC50 is 7.07.

Consider `COc1cc(OC(F)(F)F)ccc1Oc1cc(C2CC2)c(C2CC2)nc1C(=O)Nc1ccnc(C(N)=O)c1` [Compound 201, N-(2-carbamoyl-4-pyridyl)-5,6-dicyclopropyl-3-[2-methoxy-4-(trifluoromethoxy)phenoxy]pyridine-2-carboxamide], for which the pIC50 was 6.28.

In the case of `COc1cc(OC(F)(F)F)ccc1Oc1cc2c(c(C)c1C(=O)Nc1ccnc(C(N)=O)c1)OC(F)(F)O2` [Compound 202, 4-[[2,2-difluoro-6-[2-methoxy-4-(trifluoromethoxy)phenoxy]-4-methyl-1,3-benzodioxole-5-carbonyl]amino]pyridine-2-carboxamide], the pIC50 was 8.22.

Regarding `COc1cc(OC(F)(F)F)ccc1Oc1cc2c(c(C)c1C(=O)Nc1ccc(C(N)=O)nc1)OC(F)(F)O2` [Compound 203], the pIC50 is 6.85.

Take `COc1cc(OC(F)(F)F)ccc1Oc1ccc(OC2CC(F)(F)C2)c(C)c1C(=O)Nc1ccnc(C(N)=O)c1` [Compound 204, 4-[[3-(3,3-Difluorocyclobutoxy)-6-[2-Methoxy-4-(Trifluoromethoxy)Phenoxy]-2-Methyl-Benzoyl]Amino]Pyridine-2-Carboxamide]: the pIC50 is 6.77.

Regarding `COc1cc(OC(F)(F)F)ccc1Oc1cc(C2CC2)c(C2CC2)nc1C(=O)Nc1ccc(C(N)=O)nc1` [Compound 205, N-(6-carbamoyl-3-pyridyl)-5,6-dicyclopropyl-3-[2-methoxy-4-(trifluoromethoxy)phenoxy]pyridine-2-carboxamide], the pIC50 is 5.96.

In the case of `NC(=O)c1ccc(NC(=O)c2c(Oc3ccc(OC(F)(F)F)cc3C3CC3)ccc(C(F)(F)F)c2F)cn1` [Compound 206, 5-[[6-[2-cyclopropyl-4-(trifluoromethoxy)phenoxy]-2-fluoro-3-(trifluoromethyl)benzoyl]amino]pyridine-2-carboxamide], the pIC50 is 6.44.

As for `Cc1c(Oc2ccc(C(F)(F)F)c(F)c2C(=O)Nc2ccc(C(N)=O)nc2)ccc(F)c1F` [Compound 207, 5-[[6-(3,4-difluoro-2-methyl-phenoxy)-2-fluoro-3-(trifluoromethyl)benzoyl]amino]pyridine-2-carboxamide], the pIC50 is 6.43.

For the compound `Cc1cc(Cl)cc(C)c1Oc1ccc(C(F)(F)F)c(F)c1C(=O)Nc1ccc(C(N)=O)nc1` [Compound 208, 5-[[6-(4-chloro-2,6-dimethyl-phenoxy)-2-fluoro-3-(trifluoromethyl)benzoyl]amino]pyridine-2-carboxamide], the pIC50 is less than 5.52.

With `COc1c(Oc2ccc(C(F)(F)F)c(F)c2C(=O)Nc2ccc(C(N)=O)nc2)ccc(OC(F)(F)F)c1F` [Compound 209, 5-[[2-fluoro-6-[3-fluoro-2-methoxy-4-(trifluoromethoxy)phenoxy]-3-(trifluoromethyl)benzoyl]amino]pyridine-2-carboxamide], the pIC50 was 8.10.

As to `COc1cc(C(F)(F)C(F)(F)F)ccc1Oc1ccc(C(F)(F)F)c(F)c1C(=O)Nc1ccc(C(N)=O)nc1` [Compound 210, 5-[[2-fluoro-6-[2-methoxy-4-(1,1,2,2,2-pentafluoroethyl)phenoxy]-3-(trifluoromethyl)benzoyl]amino]pyridine-2-carboxamide], the pIC50 is 6.55.

As to `COc1cc(C)cc(OC)c1Oc1ccc(C(F)(F)F)c(F)c1C(=O)Nc1ccc(C(N)=O)nc1` [Compound 211, 5-[[6-(2,6-dimethoxy-4-methyl-phenoxy)-2-fluoro-3-(trifluoromethyl)benzoyl]amino]pyridine-2-carboxamide], the pIC50 was less than 5.52.

Consider `NC(=O)c1ccc(NC(=O)c2c(Oc3c(F)cc(F)cc3F)ccc(C(F)(F)F)c2F)cn1` [Compound 212, 5-[[2-fluoro-3-(trifluoromethyl)-6-(2,4,6-trifluorophenoxy)benzoyl]amino]pyridine-2-carboxamide], for which the negative logarithm of the IC50 (pIC50) is less than 5.52.

Take `Cc1cc(Cl)cc(Cl)c1Oc1ccc(C(F)(F)F)c(F)c1C(=O)Nc1ccc(C(N)=O)nc1` [Compound 213, 5-[[6-(2,4-dichloro-6-methyl-phenoxy)-2-fluoro-3-(trifluoromethyl)benzoyl]amino]pyridine-2-carboxamide]: the pIC50 was less than 5.52.

On to `Cc1c(F)ccc(Oc2ccc(C(F)(F)F)c(F)c2C(=O)Nc2ccc(C(N)=O)nc2)c1C` [Compound 214, 5-[[2-fluoro-6-(4-fluoro-2,3-dimethyl-phenoxy)-3-(trifluoromethyl)benzoyl]amino]pyridine-2-carboxamide], for which the pIC50 was less than 5.52.

Source of the values: US12441703B2, “Carboxamides as modulators of sodium channels” (VERTEX PHARMACEUTICALS INCORPORATED, priority 2019, dated 2025).
